How the values were obtained:
Female NOD mice = experiment: Islet transplantation in spontaneously diabetic NOD mice: duration of normoglycemia / graft survival; type: in vivo; details: for Duration of Normoglycemia: 2 mice; for diabetes reversal / indefinite survival of syngeneic islet grafts: 400 pg/mouse/day
[1] = Serum calcium analysis in transplanted NOD mice; type: in vivo; details: 400 pg/day
Description: (§1) Mice were treated with either 400 picograms of 2AMD/mouse/day or with vehicle. 2AMD was administered by addition of the analog in the vehicle to LabDiet 5K52 (PMI Nutrition, Brentwood, Miss.). In order to deliver the designated dose of 2AMD, a stock solution of the analog was dissolved in EtOH, vortexed for 3 min, and the analog concentration was determined by spectrophotometry. Based on pre-determined diet consumption, diet was prepared to provide 400 pg of 2AMD/mouse/day. The diets were solidified with molten agar (USB Corporation, Cleveland, Ohio). Controls were fed diet prepared as described above but the vehicle containing no 2AMD. Mice in each group were fed either 2AMD diet or vehicle diet from the day of diabetes determination until the completion of the study.
Blood was collected from the orbital sinus 3 weeks after initiation of control or 2AMD treatment and every 3 weeks thereafter. Blood samples were spun at 2,938 g for 15 min, followed by a second and third spin at 16,883 g, each for 2 min. Serum calcium levels were determined by atomic absorption in 0.1% LaCl3.

[2] = Adverse effects: food consumption, weight gain, body weights in transplanted NOD mice; type: in vivo
Description: as §1

[3] = system: insulin-2 knockout non-obese diabetic mouse; details: rodent model of spontaneous T1D; Kiekhaefer et al. 2011; cited from earlier work
[4] = chow-based diet, 800 islet equivalents
[5] = purified diet, 400 islet equivalents

2α-methyl-19-nor-(20S)-1α,25-dihydroxyvitamin D3 [2AMD]
Duration of Normoglycemia (Female NOD mice; chow diet, 400 islet equivalents, 400 pg 2AMD/mouse/day, vehicle control 28 days): ≥ 83 days
Duration of Normoglycemia (Female NOD mice; chow-based diet, 800 islet equivalents, 400 pg 2AMD/mouse/day in diet, vehicle control 110 days): > 230 days
diabetes reversal (Female NOD mice; [4]): 100%
indefinite survival of syngeneic islet grafts (Female NOD mice; [4]): 100%
additional days of continuing normoglycemia compared to the untreated control (Female NOD mice; murine model, 2AMD treatment vs untreated control): at least 130 days
diabetes reversal (Female NOD mice; [5]): 100%
indefinite survival of syngeneic islet grafts (Female NOD mice; [5]): 100%
average serum calcium ([1]; chow diet, 400 islet equivalents, control 10.0 mg/dl): 10.7 mg/dL
average serum calcium ([1]; chow-based diet, 800 islet equivalents, control mice 9.8 mg/dl): 10.3 mg/dL
average serum calcium ([1]; purified diet, 400 islet equivalents, control 10.0 mg/dl): 10.8 mg/dL
adverse effects as revealed by food consumption, weight gain and comparative body weights ([2]; 400 pg/day, chow-based diet, 800 islet equivalents): No adverse effects
food consumption, weight gain, and comparative body weights ([2]; 2AMD purified diet group, 400 islet equivalents, attributed to hydration of two dietary components (early satiety), reversed after replacement at week 22): reduced
effect on development of type 1 diabetes [3]: prevented the transition from insulitis to diabetes

From patent US20130295083A1, “2a-Methyl-19-nor-(20S)-1a,25-dihydroxyvitamin D3 (2AMD) or 2 methylene-19-nor-(20S)-1a,25-dihydroxyvitamin D3 (2MD) Support Survival and Function of Transplanted Islet Cells In Type 1 Diabetes” (Wisconsin Alumni Research Foundation, priority 2012, published 2013)
